Assay results: publication doi:10.1101/2020.10.13.337584v1 (bioRxiv, 2020)

Assays:
[1] = Health-related side-effects after daily intranasal administration; type: in vivo; conditions: 0.1 mg/Kg intranasal daily for 10 days, BALB/C mice
[2] = test system: SARS-CoV2 (SARS CoV-2 USA_WA1/2020) in VERO E6 cells; type: cell-based

CC(C)[C@H](NC(=O)CNC(=O)[C@H](CC(N)=O)NC(=O)[C@@H](NC(=O)[C@@H]1CCCN1C(=O)[C@H](CCC(N)=O)NC(=O)[C@H](Cc1ccccc1)NC(=O)CNC(=O)[C@H](Cc1ccc(O)cc1)NC(=O)CCCC[C@@H]1SC[C@@H]2NC(=O)N[C@@H]21)[C@@H](C)O)C(=O)NCC(=O)N[C@@H](Cc1ccc(O)cc1)C(=O)N[C@@H](CCC(N)=O)C(=O)N1CCC[C@H]1C(=O)O [KEpTide 1]
Skin roughness or diarrhea at the end of day 10 [1]: did not see other health issue
Effect on heart rate ([1]; n=6 per group, p = 0.0758): did not cause any loss
Effect on respiratory health (oxygen saturation) ([1]; n=6 per group, p = 0.3217): did not cause any loss
Effect on body temperature ([1]; n=6 per group, p = 0.5541): did not cause any loss
Grey density (1:20) of crystal violet staining of agar monolayer [2]: 34 ± 32.73
